Results on 3 molecules are retold here after patent US20090324500A1, “SCREEN FOR INFLAMMATORY RESPONSE MODULATORS” (priority 2006, published 2009).

The assay has as its system neutrophils. Put plainly: Tail transection injury in transgenic MPO:GFP zebrafish larvae, neutrophil counts at the site of injury. Format: in vivo. The text has this:
AB strain zebrafish from existing aquarium stocks were maintained according to standard protocols. A BAC containing approx 130 kB of 5′ promoter sequence to the MPO gene was identified (zC91B8). This BAC was modified to contain an in-frame GFP sequence beginning at the translation start site of the MPO gene by recombinase activity as previously described (Lee, E. C. et al (2001) Genomics 73, 56-65). EL250 cells required for the recombination step were a kind gift of Dr. Neal Copeland, National Cancer Institute, Frederick, […]., USA. Insertion of the GFP sequence was confirmed by co-insertion of a kanamycin resistance gene, which in turn was flanked by FRT sites leading to its easy removal before introduction into the zebrafish. As part of this process a vector was created consisting of a truncated portion of the Bluescript vector, into which we had blunt cloned a construct consisting of GFP and the FRT-flanked Kanamycin resistance gene, all of which was flanked by MPO homology arms. Using this construct, we were able to add a Nuclear Localising Sequence corresponding to that used in the Clontech vector pEYFPnuc by PCR and self ligation.
The modified BACs were injected into fertilised AB zebrafish embryos at the 1-2 cell stage, and larvae screened at 36-48 hours for the presence of fluorescence. Fluorescent larvae were grown to maturity and either in- or out-crossed to identify germ cell carriage of the transgene.
A BAC containing over 100 kb of sequence 5′ to the Zebrafish MPO promoter was identified and modified to contain an in frame GFP sequence (FIG. 3). This was then injected into zebrafish embryos at the 1-cell stage and a transgenic line created. GFP expression recapitulates the expression of myeloperoxidase in cells whose morphology is consistent with neutrophil granulocytes (see FIG. 4). When these fish are injured, neutrophils accumulate at the site of injury over time (FIGS. 5 and 6).
Neutrophil number at the site of injury following tail transection can be assessed either by manual counting (FIG. 7a) or by automated image analysis (FIG. 7b).
Manipulation of the inflammatory response in transgenic zebrafish has been performed exemplifying the role of manipulation of granulocyte apoptosis in regulating the resolution of inflammation. […] P<0.05 for t=24, zVD.fmk treated vs all other groups (1 way ANOVA with Bonferroni post test correction).
In FIG. 8b counts of fluorescent cells in individual larvae were performed for fish in the presence or absence of the bacterial product Lipopolysaccharide (LPS). LPS was added at 6 hours post injury (hpi), and counts made at 6 and 24 hpi. […] In FIG. 8c, Pyocyanin (a bacterial pigment with pro-apoptotic effects on neutrophils) was added at 4 hpi, and counts made at 8 hpi.

Consider `Cn1c2cccc(=O)c-2nc2ccccc21` [Pyocyanin], for which the “absolute cell counts (neutrophil numbers)” value (added at 4 hpi, counts at 8 hpi, FIG. 8c) is “reduce neutrophil numbers”. Consider `CC(C)[C@H](NC(=O)OCc1ccccc1)C(=O)NC(CC(=O)O)C(=O)CF` (stereo partly shown) [zVD.fmk], for which the “neutrophil numbers at the inflammatory site (resolution of inflammation)” value (between 6 hours and 24 hours after injury, FIG. 8a, P<0.05 at t=24 vs all other groups) was “persistence of neutrophil numbers”. Moreover, the “effect on granulocyte apoptosis” value (transgenic zebrafish, FIG. 8a) was “delays apoptosis”. With Lipopolysaccharide [LPS], the “% reduction in neutrophil numbers” value (added at 6 hpi, counts at 6 and 24 hpi, vs untreated fish, p<0.05, FIG. 8b) was “significantly lower”.
